Tests used:
[1] = animal models; cited from earlier work
[2] = Caco-2 homogenate S9 stability; type: in vitro ADME; conditions: Caco-2 S9 (0.5 mg protein per mL), 5 μM, 37° C.
Method: Caco-2 Homogenate S9 Stability: Caco-2 cells were grown for 21 days prior to harvesting. Culture medium was removed and cell monolayers were rinsed and scraped off into ice-cold 10 mM sodium phosphate/0.15 M potassium chloride, pH 7.4. Cells were lysed by sonication at 4° C. using a probe sonicator. Lysed cells were then transferred into 1.5 mL centrifuge vials and centrifuged at 9000 g for 20 min at 4° C. The resulting supernatant (Caco-2 cell homogenate S9 fraction) was aliquoted into 0.5 mL vials and stored at −80° C. until used.
For stability studies, prodrug (5 μM) was incubated in Caco-2 homogenate S9 fraction (0.5 mg protein per mL) for 60 min at 37° C. Concentrations of intact prodrug and released baclofen were determined at zero time and 60 minutes using LC/MS/MS.

[3] = Prodrug stability in human liver S9; type: in vitro ADME; conditions: Human Liver S9 (0.5 mg/mL), 2.0 μM, NADPH, 37° C.
Method: (§1) The stabilities of prodrugs were evaluated in one or more in vitro systems using a variety of tissue preparations following methods known in the art. The chemical stability of prodrugs in aqueous buffers at pH's of 2.0, 7.4 and 8.0 were also measured. […] Each preparation was incubated with test compound at 37° C. for one hour. Aliquots (50 μL) were removed at 0, 30, and 60 min and quenched with 0.1% trifluoroacetic acid in acetonitrile. Samples were then centrifuged and analyzed by LC/MS/MS (see Example 86 below for method details).

pancreatin = test: Pancreatin stability; type: in vitro ADME, porcine; conditions: 1% (w/v) pancreatin, 5 μM, pH 7.5, 37° C.
Method: Pancreatin Stability: Stability studies were conducted by incubating prodrug (5 μM) with 1% (w/v) pancreatin (Sigma, P-1625, from porcine pancreas) in 0.025 M Tris buffer containing 0.5 M NaCl (pH 7.5) at 37° C. for 60 min. The reaction was stopped by addition of 2 volumes of methanol. After centrifugation at 14,000 rpm for […], the supernatant was removed and analyzed by LC/MS/MS.

[4] = Prodrug stability in rat liver S9; type: in vitro ADME; conditions: Rat Liver S9 (0.5 mg/mL), 2.0 μM, NADPH, 37° C.
Method: as §1

[5] = Chemical stability of prodrugs in aqueous buffers; type: physicochemical
Method: as §1

[6] = Prodrug stability in rat plasma in vitro; type: in vitro ADME; conditions: 2.0 μM, 37° C.
Method: as §1

Caco-2 cells = test: Caco-2 cellular permeability of prodrugs; type: in vitro ADME; conditions: Caco-2 monolayer, ratio of Papp values
Method: For example, cellular permeability may be evaluated by examining the flux of a prodrug across a cultured polarized cell monolayer (e.g., Caco-2 cells). Caco-2 cells obtained from continuous culture (passage less than 28) were seeded at high density onto Transwell polycarbonate filters. Cells were maintained with DMEM/10% fetal calf serum+0.1 mM nonessential amino acids+2 mM L-Gln, 5% CO2/95% O2, 37° C. until the day of the experiment. Permeability studies were conducted at pH 6.5 apically (in 50 mM MES buffer containing 1 mM CaCl2, 1 mM MgCl2, 150 mM NaCl, 3 mM KCl, 1 mM NaH2PO4, 5 mM glucose) and pH 7.4 basolaterally (in Hanks' balanced salt solution containing 10 mM HEPES) in the presence of efflux pump inhibitors (250 μM MK-571, 250 μM Verapamil, 1 mM Ofloxacin). Inserts were placed in 12 or 24 well plates containing buffer and incubated for 30 min at 37 C.°. Prodrug (200 μM) was added to the apical or basolateral compartment (donor) and concentrations of prodrug and/or released parent drug in the opposite compartment (receiver) were determined at intervals over 1 hour using LC/MS/MS. Values of apparent permeability (Papp) were calculated using the equation: Papp=Vr(dC/dt)//(ACo)
Here Vr is the volume of the receiver compartment in mL; dC/dt is the total flux of prodrug and parent drug (μM/s), determined from the slope of the plot of concentration in the receiver compartment versus time; Co is the initial concentration of prodrug in μM; A is the surface area of the membrane in cm^2.

[7] = Prodrug stability in human plasma in vitro; type: in vitro ADME; conditions: 2.0 μM, 37° C.
Method: as §1

Compound | absorption following administration into the colon [1] | % of Baclofen Released after 60 min [2] | % of Prodrug Remaining after 60 min [2] | % of Baclofen Released after 60 min [3] | % of Prodrug Remaining after 60 min [3] | % of Prodrug Remaining after 60 min (pancreatin) | % of Baclofen Released after 60 min [4] | % of Prodrug Remaining after 60 min [4] | % of Baclofen Released after 60 min ([5]; aqueous buffer pH 2.0, 37° C.) | % of Prodrug Remaining after 60 min ([5]; aqueous buffer pH 2.0, 37° C.) | % of Baclofen Released after 60 min ([5]; aqueous buffer pH 7.4, 37° C.) | % of Prodrug Remaining after 60 min ([5]; aqueous buffer pH 7.4, 37° C.) | % of Baclofen Released after 60 min ([5]; aqueous buffer pH 8.0, 37° C.) | % of Prodrug Remaining after 60 min ([5]; aqueous buffer pH 8.0, 37° C.) | % of Baclofen Released after 60 min [6] | % of Prodrug Remaining after 60 min [6] | Ratio A-B/B-A (Caco-2 cells) | % of Baclofen Released after 60 min [7] | % of Prodrug Remaining after 60 min [7]
NCC(CC(=O)O)c1ccc(Cl)cc1 (racemic) [Baclofen, (±)-4-Amino-3-(4-chlorophenyl)butanoic acid] | poorly absorbed | – | – | – | – | – | – | – | – | – | – | – | – | – | – | – | – | – | –
CCCC(=O)OCOC(=O)NC[C@H](CC(=O)[O-])c1ccc(Cl)cc1.[Na+] [(16), Sodium 4-[(Butanoyloxymethoxy)carbonylamino]-(3R)-(4-chlorophenyl)-butanoate] | – | 100% | 1% | 100% | 1% | 1% | 100% | 1% | 0% | 100% | 0% | 100% | 0% | 100% | 40% | 54% | 5.1 | 20% | 62%

— patent publication US10385014B2, “Acyloxyalkyl carbamate prodrugs, methods of synthesis and use” (ARBOR PHARMACEUTICALS, LLC, priority 2003, dated 2019)
